Test results as given in patent US9764014B2, “Use of toll-like receptor ligands as adjuvants to vaccination therapy for brain tumors” (Cedars-Sinai Medical Center, priority 2008, dated 2017).

Columns and labels:
BMDC = assay: IL-6, TNF-α and IL-12 ELISA of BMDC activated by GL26 lysate vs. TLR ligands; type: cell-based, C57BL/6 mice; details: FIG. 9 bottom panel, GL26 lysate plus TLR ligand
Procedure: Experiments were performed with at least three replicates per condition. As controls for these experiments the inventors utilized brain tissue lysate obtained from healthy C57BL/6 mice and untreated DCs. Furthermore, for each TLR ligand, the inventors utilized up to three different concentrations previously shown to activate dendritic cells in order to identify the best concentration for maximal activation of BMDC. […] However, TLR ligands alone consistently promote increases the dependent variables measured to a greater degree than TLR ligands with tumor lysate. However, it is likely that activation by TLR ligands alone would not prime T cells to be tumor antigen specific. […] Therefore, ELISA on BMDC treated with GL26 lysate and individual TLR ligands were performed as described above. […] TNF-α and IL-12 (FIG. 9).
Primary BMDCs were isolated from the femurs of 6-10 week old C57BL/6 mice and cultured in RPMI cell culture media with GM-CSF (1000 IU/ML) and IL-4 (1000 IU/ML). BMDCs (1×10^6 cells/ml) were maintained in cell culture at 37° C., 5% CO2 and exposed to with […] GL26 freeze-thaw lysate and either TLR2 ligand (Pam3Cys, 50 μg/ml), TLR4 ligand (LPS 50 ng/ml), or TLR9 ligand (CpG ODN 1826, 5 μM) overnight (ON). Control cells were treated with […] GL26 freeze-thaw lysate only. […]

[1] = test system: primary dendritic cells from MyD88−/− and wild-type controls; assay: ELISA for TNF-alpha in primary DC treated with LPS; type: cell-based, mice
Excerpt: While the inventors provide evidence that GL26 tumor cells and TLR ligands activate DC2.4 cells, it is unknown if GL26 lysate activation is signaling through MyD88−/− and/or TRIF dependent pathways. It is possible that the GL26 tumor cell activation is signaling through TLRs or at least through downstream signaling molecules MyD88 and/or TRIF. Therefore, the inventors isolated primary dendritic cells from MyD88−/− and wild-type controls and exposed them to GL26 lysate and TLR ligand LPS. The inventors believe that LPS activation in MyD88−/− DC will not show up-regulation of TNF-alpha protein as measured by ELISA.

primary BMDC = assay: IL-6 ELISA from primary BMDC derived from MyD88−/− and littermate controls; type: cell-based, mice; details: MyD88−/− DC compared to BMDC from wild-type littermate controls; LPS 100 ng/ml or 10 ng/ml with GL26 lysate
Procedure: Briefly, BMDCs were cultured in 24-well plates at 3×10^5 cells/ml and exposed to TLR ligands and lysate for 24 hours. Cell culture media were collected for ELISA analysis against IL-6, TNF-α and IL-12. Three independent experiments with at least three replicates per experiment were performed.
While the inventors provide evidence that GL26 tumor cells and TLR ligands activate primary BMDC. […] It is possible that the GL26 tumor cell activation is signaling through TLRs or at least through downstream signaling molecule MyD88. Therefore, primary dendritic cells from MyD88−/− and Wild-type controls were isolated and exposed to GL26 lysate and TLR ligand LPS at 100 ng/ml or 10 ng/ml. The inventors believe that LPS activation in MyD88−/− DC will not show up-regulation of secreted IL-6 protein as measured by ELISA. […] Furthermore, no significant difference exists between MyD88−/− and wild-type derived BMDC exposed to brain lysate (FIG. 10).
Primary BMDCs were isolated from the bone marrow of femurs of euthanized MyD88−/− and their +/+ littermate controls as described above. BMDCs were activated using 1) GL26 tumor lysate alone; 2) TLR ligands (Pam3cys (50 μg/ml) or LPS (50 ng/ml) or CpG ODN (5 μM) and tumor lysate for each; 3) Treatment of DCs with brain lysate alone may also serves as a control condition.

Substance	IL-12 protein production (BMDC)	TNF-alpha protein by ELISA ([1]; MyD88−/− DC)	TNF-alpha protein by ELISA ([1]; wild-type DCs, compared to controls)	IL-6 secreted protein levels by ELISA (primary BMDC)
Pam3cys	relatively limited increases	–	–	–
lipopolysaccharide [LPS]	–	no up-regulation	significant up-regulations	reduced
